Laboratory results reported in patent US4616023A, “Pharmaceutical compositions of 4-(dibenzo-[a,d]cycloalkenyl)piperazine compounds and methods” (Merck & Co., Inc., priority 1985, dated 1986).

Tested on: Rat Aorta
Assay: inhibition of calcium induced contraction of vascular smooth muscle (rat aorta segments)
Type: cell-based, male Sprague-Dawley rats
Conditions: at 10^-7 M, 1.0 mM calcium chloride induced contraction, read-out: Percent Inhibition of Rat Aorta
Description: The property may be observed in a test in which segments of vascular smooth muscle obtained from male Sprague-Dawleyrats are suspended in physiological salt solution in a tissue bath instrumented for recording contractions. After the tissue has been equilibrated, washed in calcium-free physiological salt solution and then depolarized, 1.0 mM calcium chloride is re-added to induce contraction. After the contraction has reached a plateau, tissues are washed and a test compound or vehicle is added to determine the effect achieved by the above cyclic protocol on a second contraction. From measuring the initial contraction as well as the second contraction in the presence of the test compound, the extent of inhibition may be calculated. The results of these tests for representative compounds in the compositions of the present invention are seen in the following table.

Row | Structure (SMILES) | inhibition at 0.1 µM
1 | CN1CCN(C2c3ccccc3C=Cc3ccc(Cl)cc32)CC1 (centres unmarked) [1-(3-Chloro-5H-dibenzo[a,d]cyclohepten-5-yl)-4-methylpiperazine] | 90%
2 | COc1ccc2c(c1)C(N1CCN(C)CC1)c1ccccc1C=C2 (centres unmarked) [1-(3-Methoxy-5H-dibenzo[a,d]cyclohepten-5-yl)-4-methylpiperazine] | 65%
3 | Brc1ccc2c(c1)C(N1CCN(CC=Cc3ccccc3)CC1)c1ccccc1C=C2 (centres unmarked) [1-(3-bromo-5H-dibenzo[a,d]cyclohepten-5-yl)-4-cinnamylpiperazine] | 41%
4 | C1=Cc2ccccc2C(N2CCNCC2)c2ccccc21 [1-(5H-Dibenzo[a,d]cyclohepten-5-yl)piperazine] | 34%
5 | CN1CCN(C2c3ccccc3C=Cc3ccccc32)CC1 [1-(5H-dibenzo[a,d]cyclohepten-5-yl)-4-methylpiperazine] | 59%
6 | CN1CCN(C2c3ccccc3CSc3ccccc32)CC1 (centres unmarked) [1-(6,11-Dihydrodibenzo[b,e]thiepin-11-yl)-4-methylpiperazine] | 30%
7 | COc1ccc2c(c1)C(N1CCN(C)CC1)c1ccccc1CC2 (centres unmarked) [1-(10,11-Dihydro-3-methoxy-5H-dibenzo[a,d]cyclohepten-5-yl)-4-methylpiperazine] | 36%
8 | CSc1ccc2c(c1)C(N1CCN(C)CC1)c1ccccc1C=C2 (centres unmarked) [1-Methyl-4-(3-methylthio-5H-dibenzo[a,d]cyclohepten-5-yl)piperazine] | 76%
9 | CCOC(=O)N1CCN(C2c3ccccc3C=Cc3ccccc32)CC1 [Ethyl 4-(5H-Dibenzo[a,d]cyclohepten-5-yl)-1-piperazinecarboxylate] | 37%

Same assay, conditions: at 10^-8 M, 1.0 mM calcium chloride induced contraction, read-out: Percent Inhibition of Rat Aorta

Row | Structure (SMILES) | inhibition at 0.01 µM
10 | CN1CCN(C2c3ccccc3C=Cc3ccc(Br)cc32)CC1 (centres unmarked) [1-(3-Bromo-5H-dibenzo[a,d]cyclohepten-5-yl)-4-methylpiperazine] | 48%
11 | C(=Cc1ccccc1)CN1CCN(C2c3ccccc3C=Cc3ccccc32)CC1 [1-cinnamyl-4-(5H-dibenzo[a,d]cyclohepten-5-yl)piperazine] | 89%
